For orientation: Kd means the constant that tells how readily two partners part at equilibrium. Usually EC50 stands for the concentration needed to bring the measured effect to its halfway point.

Our source for the Kd and EC50 values is patent US10947252B2, “Inhibitors of KEAP1-Nrf2 protein-protein interaction” (Janssen Pharmaceutica NV, priority 2018, dated 2021).

Assay [1] deals with Kelch domain of human KEAP1 (321-624 aa) (Homo sapiens (Human), UniProt Q14145). Kind of assay: KEAP1 KELCH ThermoFluor binding assay.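 Further: Ligand-induced melting temperature shift of E. coli-expressed KEAP1 Kelch protein, Kd estimated from concentration-response curves of ΔTm.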 The settings on record: KEAP Kelch […], 1,8-ANS, pH 7.0, average of results obtained, read-out: Tf Kd. For orientation: DSF heats the sample and reads unfolding from a dye or from intrinsic fluorescence.
Description: The shift in the melting point described as a ΔTm is proportional to the concentration and affinity of the ligand. The compound potency may be compared as a rank order of either ΔTm values at a single compound concentration or in terms of KD values, estimated from concentration response curves.
The protein was expressed in E. coli with 6His tag that was cleaved prior to receipt for use.
Protein (KEAP Kelch) and compound solutions were dispensed into black 384-well polypropylene PCR microplates (Abgene) and overlayed with silicone oil (1 μL, Fluka, type DC 200) to prevent evaporation.
The test system of assay [2] is Glo-Response ARE-luc2P HEK293 cell line. The assay can be described thus: ARE luciferase reporter cell-based assay.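 Further: luciferase signal tracks Nrf2 activation of the ARE once compounds disrupt KEAP1-Nrf2 binding, read with One-Glo reagent, DMSO serving as low control.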 The settings on record: Homo sapiens, HEK293, 24 h, average of results obtained. (A reporter such as luciferase makes a cellular process visible.)
Protocol: The ARE assay utilizes a luciferase reporter cell line where the signal is proportional to NrF2 activation of the ARE. The cell line is commercially available from Promega and was prepared by stably transfecting HEK293 cells with a vector (pGL4.11) which contains the ARE response element upstream of a minimal promoter. The promoter drives expression of luc2 firefly luciferase gene. Upon disruption of KEAP1-Nrf2 binding by compound, Nrf2 translocates into the nucleus where it binds to the ARE and activates transcription of luciferase.
The materials used in this ARE assay are as follows: Glo-Response ARE-luc2P HEK293 cell line and One-Glo Luciferase Assay System were purchased from Promega (Madison, Wis.). Dulbecco's Modified Eagle medium ((DMEM), low glucose, GlutaMAX, pyruvate), fetal bovine serum (certified, heat inactivated), hygromycin B, Dulbecco's phosphate-buffered saline were purchased from Life Technologies (Grand Island, N.Y.). Penicillin, streptomycin solution (100×) and 0.05% trypsin-EDTA were purchased from Corning (Manassas, Va.). DMSO was purchased from EMD Millipore.
The ARE assay protocol is as follows: cells were maintained in growth medium (DMEM+10% FBS, 200 μg/mL hygromycin B, p-s) between 20-90% confluency by splitting twice per week. One day before the assay, cells were trypsinized, counted to determine viable cell count, and re-suspended in assay medium (DMEM+10% FBS, p-s) at 250,000 cells/mL. […] 100% DMSO was used as the low control. A 11-point dose series of the control compound was included on every plate. Compounds were spotted to an intermediate plate (Greiner #781280 V-bottom 384 well plate) using the Echo acoustic dispenser (Labscyte San Jose, Calif.). Spot size was 240 nL.
On the day of the assay, 60 mL per well of assay medium was added to the pre-spotted plate to make 2× compound stocks using the Combi (Thermo Waltham, Mass.). Compound and medium were mixed on the Janus and 20 mL of 2×compound stock was added to the cell plate which already contained 20 mL of assay medium from cell plating. […] The plates were returned to the tissue culture incubator for 24 hours.
The next day, luciferase activity was measured according to the manufacturer's protocol for One-Glo luciferase reagent. The plates were removed from the incubator and allowed to equilibrate to room temperature for 30 min. Forty microliters of One-Glo reagent (equilibrated to room temperature) was added per well using the Combi. The plates were mixed on an orbital shaker for 3 min. Luminescence was read on the BMG Pherastar multiplate reader (Cary, N.C.) using the luminescence protocol (1 sec interval).
The dose-response data were analyzed in Genedata Screener using 4PL nonlinear regression model. Raw luminescence counts as well as normalized values were used for data analysis.

Sequence of Kelch domain of human KEAP1 (321-624 aa) (Q14145 321-624): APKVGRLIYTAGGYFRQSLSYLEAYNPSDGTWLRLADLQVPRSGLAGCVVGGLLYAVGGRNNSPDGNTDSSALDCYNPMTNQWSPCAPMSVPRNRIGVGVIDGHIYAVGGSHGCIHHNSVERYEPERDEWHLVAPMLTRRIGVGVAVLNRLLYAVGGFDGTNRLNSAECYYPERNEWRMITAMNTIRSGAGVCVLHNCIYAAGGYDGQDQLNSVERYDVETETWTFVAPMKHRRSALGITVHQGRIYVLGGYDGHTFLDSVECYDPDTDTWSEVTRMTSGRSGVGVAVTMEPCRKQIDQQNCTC

Regarding `CCn1nnc2c(C)c([C@H](CC(=O)O)c3ccc(C)c(CN4C[C@H]5CCCN5c5ncccc5S4(=O)=O)n3)ccc21` (single isomer, unassigned) [Example 297, (*S)-3-(6-(((R)-5,5-Dioxido-7a,8,9,10-tetrahydropyrido[2,3-f]pyrrolo[2,1-d][1,2,5]thiadiazepin-6(7H)-yl)methyl)-5-methylpyridin-2-yl)-3-(1-ethyl-4-methyl-1H-benzo[d][1,2,3]triazol-5-yl)propanoic Acid], in assay [1], the Kd is under 1 nM. This compound also returned an EC50 in assay [2] of 6 nM.
`CCn1nnc2c(C)c([C@@H](CC(=O)O)c3ccc(C)c(CN4C[C@H]5CCCN5c5ncccc5S4(=O)=O)n3)ccc21` (single isomer, unassigned) [Example 298, (*R)-3-(6-(((R)-5,5-Dioxido-7a,8,9,10-tetrahydropyrido[2,3-f]pyrrolo[2,1-d][1,2,5]thiadiazepin-6(7H)-yl)methyl)-5-methylpyridin-2-yl)-3-(1-ethyl-4-methyl-1H-benzo[d][1,2,3]triazol-5-yl)propanoic Acid]: in assay [1], the Kd is under 1 nM. In assay [2], this compound yielded an EC50 of 21.5 nM.
Turning to `Cc1ccc([C@H](CC(=O)O)c2ccn3c(C(F)(F)F)nnc3c2C)cc1CN1C[C@H]2CCCCN2c2ccccc2S1(=O)=O` (single isomer, unassigned) [Example 300, (*S)-3-(3-(((*R)-5,5-Dioxido-7,7a,8,9,10,11-hexahydro-6H-benzo[f]pyrido[2,1-d][1,2,5]thiadiazepin-6-yl)methyl)-4-methylphenyl)-3-(8-methyl-3-(trifluoromethyl)-[1,2,4]triazolo[4,3-a]pyridin-7-yl)propanoic Acid], in assay [1], the Kd is under 1 nM. The compound further gave an EC50 in assay [2] of 5 nM.
Regarding `CCn1nnc2c(C)c([C@H](CC(=O)O)c3ccc(C)c(CN4C[C@@H]5CCCCN5c5ncccc5S4(=O)=O)n3)ccc21` (single isomer, unassigned) [Example 302, (*S)-3-(6-(((*S)-5,5-Dioxido-7,7a,8,9,10,11-hexahydro-6H-dipyrido[2,1-d:2′,3′-][1,2,5]thiadiazepin-6-yl)methyl)-5-methylpyridin-2-yl)-3-(1-ethyl-4-methyl-1H-benzo[d][1,2,3]triazol-5-yl)propanoic Acid], in assay [1], the Kd was under 1 nM. The same compound had an EC50 in assay [2] of 2.8 nM.
As for `CCn1nnc2c(C)c([C@@H](CC(=O)O)c3ccc(C)c(CN4C[C@@H]5CCCCN5c5ncccc5S4(=O)=O)n3)ccc21` (single isomer, unassigned) [Example 303, (*R)-3-(6-(((*S)-5,5-Dioxido-7,7a,8,9,10,11-hexahydro-6H-dipyrido[2,1-d:2′,3′-][1,2,5]thiadiazepin-6-yl)methyl)-5-methylpyridin-2-yl)-3-(1-ethyl-4-methyl-1H-benzo[d][1,2,3]triazol-5-yl)propanoic Acid], the Kd in assay [1] was under 1 nM. Moreover, the midpoint of the response in assay [2], the EC50, lay at 27.1 nM.
The like results for `CCn1nnc2c(C)c([C@H](CC(=O)O)c3ccc(C)c(CN4C[C@H]5CCCCN5c5ncccc5S4(=O)=O)n3)ccc21` (single isomer, unassigned) [Example 305, (*S)-3-(6-(((*R)-5,5-Dioxido-7,7a,8,9,10,11-hexahydro-6H-dipyrido[2,1-d:2′,3′-][1,2,5]thiadiazepin-6-yl)methyl)-5-methylpyridin-2-yl)-3-(1-ethyl-4-methyl-1H-benzo[d][1,2,3]triazol-5-yl)propanoic Acid] were, in that order, under 1 nM and 1.7 nM.
The like results for `CCn1nnc2c(C)c([C@@H](CC(=O)O)c3ccc(C)c(CN4C[C@H]5CCCCN5c5ncccc5S4(=O)=O)n3)ccc21` (single isomer, unassigned) [Example 306, (*R)-3-(6-(((*R)-5,5-Dioxido-7,7a,8,9,10,11-hexahydro-6H-dipyrido[2,1-d:2′,3′-f][1,2,5]thiadiazepin-6-yl)methyl)-5-methylpyridin-2-yl)-3-(1-ethyl-4-methyl-1H-benzo[d][1,2,3]triazol-5-yl)propanoic Acid] were, in that order, under 1 nM and 9.4 nM.
The like results for `Cc1ccc([C@H](CC(=O)O)c2ccn3c(C(F)(F)F)nnc3c2C)cc1CN1CC2(CC2)Oc2ncc(F)cc2S1(=O)=O` (single isomer, unassigned) [Example 311, (*S)-3-(3-((8′-Fluoro-1′,1′-dioxidospiro[cyclopropane-1,4′-pyrido[2,3-b][1,4,5]oxathiazepin]-2′(3′H)-yl)methyl)-4-methylphenyl)-3-(8-methyl-3-(trifluoromethyl)-[1,2,4]triazolo[4,3-a]pyridin-7-yl)propanoic Acid] were, in that order, under 1 nM and 9.3 nM.
Turning to `Cc1cnc2c(c1)S(=O)(=O)N(Cc1cc([C@@H](c3ccn4c(C(F)(F)F)nnc4c3C)C(C)(C)C(=O)O)ccc1C)CC1(CC1)O2` (single isomer, unassigned) [Example 314, (*S)-2,2-Dimethyl-3-(4-methyl-3-((8′-methyl-1′,1′-dioxidospiro[cyclopropane-1,4′-pyrido[2,3-b][1,4,5]oxathiazepin]-2′(3′H)-yl)methyl)phenyl)-3-(8-methyl-3-(trifluoromethyl)-[1,2,4]triazolo[4,3-a]pyridin-7-yl)propanoic Acid], the Kd in assay [1] is under 1 nM. The compound also gave an EC50 in assay [2] of 1 nM.
In the case of `Cc1cnc2c(c1)S(=O)(=O)N(Cc1cc([C@H](c3ccn4c(C(F)(F)F)nnc4c3C)C(C)(C)C(=O)O)ccc1C)CC1(CC1)O2` (single isomer, unassigned) [Example 315, (*R)-2,2-Dimethyl-3-(4-methyl-3-((8′-methyl-1′,1′-dioxidospiro[cyclopropane-1,4′-pyrido[2,3-b][1,4,5]oxathiazepin]-2′(3′H)-yl)methyl)phenyl)-3-(8-methyl-3-(trifluoromethyl)-[1,2,4]triazolo[4,3-a]pyridin-7-yl)propanoic Acid], in assay [1], the Kd is 287 nM. Moreover, the half-maximal effective concentration (EC50) in assay [2] was 148 nM.
With `Cc1ccc([C@@H](c2ccn3c(C(F)(F)F)nnc3c2C)C(C)(C)C(=O)O)cc1CN1CC2(CC2)Oc2ncccc2S1(=O)=O` (single isomer, unassigned) [Example 317, (*S)-3-(3-((1′,1′-Dioxidospiro[cyclopropane-1,4′-pyrido[2,3-b][1,4,5]oxathiazepin]-2′(3′H)-yl)methyl)-4-methylphenyl)-2,2-dimethyl-3-(8-methyl-3-(trifluoromethyl)-[1,2,4]triazolo[4,3-a]pyridin-7-yl)propanoic Acid], the Kd in assay [1] was under 1 nM. Further, the EC50 in assay [2] came out at 1.9 nM.
Consider `Cc1ccc([C@H](c2ccn3c(C(F)(F)F)nnc3c2C)C(C)(C)C(=O)O)cc1CN1CC2(CC2)Oc2ncccc2S1(=O)=O` (single isomer, unassigned) [Example 318, (*R)-3-(3-((1′,1′-Dioxidospiro[cyclopropane-1,4′-pyrido[2,3-b][1,4,5]oxathiazepin]-2′(3′H)-yl)methyl)-4-methylphenyl)-2,2-dimethyl-3-(8-methyl-3-(trifluoromethyl)-[1,2,4]triazolo[4,3-a]pyridin-7-yl)propanoic Acid], for which the Kd in assay [1] came out at 1990 nM. In assay [2], this compound returned an EC50 of 598 nM.
The like results for `Cc1ccc([C@@H](c2ccn3c(C(F)(F)F)nnc3c2)C(C)(C)C(=O)O)cc1CN1CC2(CCOCC2)Oc2ncccc2S1(=O)=O` (single isomer, unassigned) [Example 320, (*S)-3-(3-((1′,1′-Dioxido-2,3,5,6-tetrahydrospiro[pyran-4,4′-pyrido[2,3-b][1,4,5]oxathiazepin]-2′(3′H)-yl)methyl)-4-methylphenyl)-2,2-dimethyl-3-(3-(trifluoromethyl)-[1,2,4]triazolo[4,3-a]pyridin-7-yl)propanoic Acid] were, in that order, 831 nM and 19400 nM.
Regarding `Cc1ccc([C@H](c2ccn3c(C(F)(F)F)nnc3c2)C(C)(C)C(=O)O)cc1CN1CC2(CCOCC2)Oc2ncccc2S1(=O)=O` (single isomer, unassigned) [Example 321, (*R)-3-(3-((1′,1′-Dioxido-2,3,5,6-tetrahydrospiro[pyran-4,4′-pyrido[2,3-b][1,4,5]oxathiazepin]-2′(3′H)-yl)methyl)-4-methylphenyl)-2,2-dimethyl-3-(3-(trifluoromethyl)-[1,2,4]triazolo[4,3-a]pyridin-7-yl)propanoic Acid], the Kd in assay [1] is under 1 nM. In assay [2], this compound showed an EC50 of 22 nM.
The like results for `Cc1cnc2c(c1)S(=O)(=O)N(Cc1cc([C@@H](c3ccn4c(C(F)(F)F)nnc4c3)C(C)(C)C(=O)O)ccc1C)CC1(CC1)O2` (single isomer, unassigned) [Example 323, (*S)-2,2-Dimethyl-3-(4-methyl-3-((8′-methyl-1′,1′-dioxidospiro[cyclopropane-1,4′-pyrido[2,3-b][1,4,5]oxathiazepin]-2′(3′H)-yl)methyl)phenyl)-3-(3-(trifluoromethyl)-[1,2,4]triazolo[4,3-a]pyridin-7-yl)propanoic Acid] were, in that order, 298 nM and 16200 nM.
The like results for `Cc1cnc2c(c1)S(=O)(=O)N(Cc1cc([C@H](c3ccn4c(C(F)(F)F)nnc4c3)C(C)(C)C(=O)O)ccc1C)CC1(CC1)O2` (single isomer, unassigned) [Example 324, (*R)-2,2-Dimethyl-3-(4-methyl-3-((8′-methyl-1′,1′-dioxidospiro[cyclopropane-1,4′-pyrido[2,3-b][1,4,5]oxathiazepin]-2′(3′H)-yl)methyl)phenyl)-3-(3-(trifluoromethyl)-[1,2,4]triazolo[4,3-a]pyridin-7-yl)propanoic Acid] were, in that order, under 1 nM and 16.7 nM.
As for `Cc1ccc([C@@H](c2ccn3c(C(F)(F)F)nnc3c2C)C(C)(C)C(=O)O)nc1CN1CC2(CCOCC2)Oc2nc(OCCN3CCOCC3)ccc2S1(=O)=O` (single isomer, unassigned) [Example 325, (*S)-2,2-Dimethyl-3-(8-methyl-3-(trifluoromethyl)-[1,2,4]triazolo[4,3-a]pyridin-7-yl)-3-(5-methyl-6-((7′-(2-morpholinoethoxy)-1′,1′-dioxido-2,3,5,6-tetrahydrospiro[pyran-4,4′-pyrido[2,3-b][1,4,5]oxathiazepin]-2′(3′H)-yl)methyl)pyridin-2-yl)propanoic Acid], in assay [1], the Kd is under 1 nM. The compound further registered an EC50 in assay [2] of 17.2 nM.
